Laboratory results: patent publication US20250179016A1, “AMORPHOUS MELANOCORTIN-4 RECEPTOR AGONIST” (LG CHEM, LTD., priority 2020, published 2025)

Experiments:
[1] = Stability assessment: storage of the solid sample, then HPLC analysis; type: physicochemical; settings: in % (unit assumed)
[2] = as above; type: physicochemical; settings: in % (unit assumed); for Stability result (HPLC analysis), Open ACC: open state, accelerated condition (40° C., 75% RH); for Stability result (HPLC analysis), Closed STR: sealed state, harsh condition, oven at 80° C.
Description: About 10-30 mg of the sample was stored for 4 weeks in an open state under the accelerated condition (40° C., 75% RH) or in a sealed state under the harsh condition in an oven at 80° C.

Question: What does the source list for `CC(C)C(=O)N([C@H]1C[C@@H](C(=O)N2CCOCC2)N(C(=O)[C@@H]2CN(C(C)(C)C)C[C@H]2c2ccc(Cl)cc2)C1)[C@H]1CC[C@@H](C)CC1.Cl` [Example 1, N-((3S,5S)-1-((3S,4R)-1-(tert-butyl)-4-(4-chlorophenyl)pyrrolidine-3-carbonyl)-5-(morpholine-4-carbonyl)pyrrolidin-3-yl)-N-((1s,4R)-4-methylcyclohexyl)isobutyramide hydrochloride]?
Answer: Stability result (HPLC analysis), Closed RT ([1]; Week 2, stored at room temperature): 97.86; Stability result (HPLC analysis), Closed RT ([1]; Week 4, stored at room temperature): 97.27; Stability result (HPLC analysis), Open ACC ([2]; Day 3): 97.95; Stability result (HPLC analysis), Closed STR ([2]; Day 3): 97.94; Stability result (HPLC analysis) ([2]; Initial): 97.94; Stability result (HPLC analysis), Open ACC ([2]; Week 1): 98.04; Stability result (HPLC analysis), Closed STR ([2]; Week 1): 97.83; Stability result (HPLC analysis), Open ACC ([2]; Week 2): 98.04; Stability result (HPLC analysis), Closed STR ([2]; Week 2): 97.88; Stability result (HPLC analysis), Open ACC ([2]; Week 4): 97.68; Stability result (HPLC analysis), Closed STR ([2]; Week 4): 97.10
